The target in one assay is T1, Oxytocin receptor (Rattus norvegicus, UniProt P70536).
T1 construct: from tissue; host or cells: rat uterine muscle membrane (diethylstilbestrol-treated)
T1 sequence (P70536 1-388): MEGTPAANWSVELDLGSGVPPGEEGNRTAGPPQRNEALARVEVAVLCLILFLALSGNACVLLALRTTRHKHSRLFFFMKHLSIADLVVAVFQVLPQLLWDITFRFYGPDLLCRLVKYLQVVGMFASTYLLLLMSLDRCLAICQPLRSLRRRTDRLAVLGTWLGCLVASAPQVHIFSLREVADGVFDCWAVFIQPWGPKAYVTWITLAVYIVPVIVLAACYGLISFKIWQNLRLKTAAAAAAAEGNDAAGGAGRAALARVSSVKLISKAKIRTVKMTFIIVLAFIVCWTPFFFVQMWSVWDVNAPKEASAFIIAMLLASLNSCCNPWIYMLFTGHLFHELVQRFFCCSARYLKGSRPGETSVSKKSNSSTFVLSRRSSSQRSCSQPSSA
The assay can be described thus: Oxytocin receptor binding assay ([3H]-oxytocin, rat uterine muscle membrane). To be noted: 25° C., one hour, pH 8.0. The method, then:
Experiment 3: Oxytocin receptor binding assay
According to the method of W. Y. Chan et al. [Endocrinology, 126, 2095-2101 (1990)], uterine muscle is taken out from a rat which has previously been injected subcutaneously with diethylstilbestrol the day before, and homogenized, which is used as a membrane preparation. The membrane preparation (0.2 mg), [^3 H]-oxytocin (100000 dpm, 10^-9 M), a test compound (10^-9 -10^-5 M) are incubated at 25° C. for one hour in 100 mM Tris-HCl buffer (pH 8.0, 250 μl) containing a 5 mM MgCl2, 1 mM MEDTA and 0.1% BSA. The mixture is filtered through the glass filter (GF/B) so as to separate the membrane preparation binding with [^3 H]-oxytocin, and then, washed twice with the buffer (5 ml). This glass filter is put into a vial and mixed with Aquasole (liquid scintillation cocktail). The amount of [^3 H]-oxytocin binding with the membrane is measured by liquid scintillation counter. The rate of the inhibitory effect of the test compound is estimated according to the following equation.
Inhibitory Rate (%)=100-[(C1 -B)/(C0 -B)]×100
C1 : The amount of [^3 H]-oxytocin binding with the membrane in the presence of a test compound (known amount)
C0 : The amount of [^3 H]-oxytocin binding with the membrane in the absence of a test compound
B: The amount of [^3 H]-oxytocin binding with the membrane in the presence of the excess amount of oxytocin (5×10^-6 M).
The results are expressed as IC50 value, which is the concentration of the test compound required to achieve the inhibitory rate in the rate of 50%.

In another assay the target is V1 receptor (Rattus norvegicus, UniProt P30560). As to the kind of experiment: biochemical. To be noted: rat liver plasma membrane, [3H]-Arg-vasopressin, 37° C., 10 minutes, pH 8.0; read-out: IC50 in V1 receptor binding assay. The method, then:
Experiment 1: V1 receptor binding assay
Using rat liver plasma membrane preparations prepared according to Ichihara's method [cf: Akira Ichihara, J. Bio. Chem., 258, 9283 (1983)], the plasma membrane (50000 dpm, 2×10^-10 M) of [^3 H]-Arg-vasopressin and a test compound (60 μg, 10^-8 to 10^-4 M) are incubated at 37° C. for 10 minutes in 100 mM Tris-HCl buffer (pH: 8.0) (250 μl) containing 5 mM MgCl2, 1 mM EDTA and 0.1% BSA. After incubation, the mixture is filtered three times using the glass filter (GF/F) so as to separate the membrane preparation binding with vasopressin and then washed with the buffer (5 ml). This glass filter is taken out and mixed with liquid scintillation cocktail. The amount of [^3 H]-vasopressin binding with the membrane is measured by liquid scintillation counter and the rate of the inhibitory effect of the test compound is estimated according to the following equation. [formula] C1 : The amount of [^3 H]-vasopressin binding with the membrane in the presence of the test compound (known amount)
(§1) C0 : The amount of [^3 H]-vasopressin binding with the membrane in the absence of the test compound
(§2) B1 : The amount of [^3 H]-vasopressin binding with the membrane in the presence of the excess amount of vasopressin (10^-6 M)
(§3) The results are expressed as IC50 value, which is the concentration of the test compound required to achieve the inhibitory effect in the rate of 50%.

In the next assay the target is T2, V2 receptor (Rattus norvegicus, UniProt Q00788).
T2 construct: Using rat kidney plasma membrane preparations; from tissue; host or cells: rat kidney plasma membrane
As to the kind of experiment: biochemical. To be noted: rat kidney plasma membrane, [3H]-Arg-vasopressin, 4° C., pH 8.0, read-out: IC50 in V2 receptor binding assay. The procedure:
Experiment 2: V2 receptor binding assay
Using rat kidney plasma membrane preparations prepared according to O. Hechter's method [cf: J. Bio. Chem., 253, 3211 (1978)], the plasma membrane (100000 dpm, 4×10^-10 M) of [^3 H]-Arg-vasopressin and a test compound (0.6 mg, 10^-10 to 10^-5 M) are incubated at 4° C. for 3 hours in 100 mM Tris-HCl buffer (pH: 8.0) (250 μl) containing 5 mM MgCl2, 1 mM EDTA and 0.1% BSA. After incubation, the mixture is filtered using the glass filter (GF/F) so as to separate the membrane preparation binding with vasopressin and then washed twice with the buffer (each 5 ml). This glass filter is taken out and mixed with liquid scintillation cocktail. The amount of [^3 H]-vasopressin binding with the membrane is measured by liquid scintillation counter and the rate of the inhibitory effect of the test compound is estimated according to the following equation. [formula] C1 : The amount of [^3 H]-vasopressin binding with the membrane in the presence of the test compound (known amount)
as §1, §2, §3

Sequence of V1 receptor (P30560 whole entry): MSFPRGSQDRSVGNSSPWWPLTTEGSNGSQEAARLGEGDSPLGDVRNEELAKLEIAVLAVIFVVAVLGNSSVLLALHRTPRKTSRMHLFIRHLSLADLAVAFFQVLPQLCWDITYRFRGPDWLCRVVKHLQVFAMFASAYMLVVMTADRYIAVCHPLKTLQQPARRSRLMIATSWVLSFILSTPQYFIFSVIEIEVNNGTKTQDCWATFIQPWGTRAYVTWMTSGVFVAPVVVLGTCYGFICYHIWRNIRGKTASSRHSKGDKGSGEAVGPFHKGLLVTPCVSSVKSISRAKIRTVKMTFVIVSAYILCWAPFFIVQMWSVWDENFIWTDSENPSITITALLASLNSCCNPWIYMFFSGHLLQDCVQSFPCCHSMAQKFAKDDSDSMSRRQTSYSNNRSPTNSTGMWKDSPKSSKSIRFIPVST
T2 sequence (Q00788 whole entry): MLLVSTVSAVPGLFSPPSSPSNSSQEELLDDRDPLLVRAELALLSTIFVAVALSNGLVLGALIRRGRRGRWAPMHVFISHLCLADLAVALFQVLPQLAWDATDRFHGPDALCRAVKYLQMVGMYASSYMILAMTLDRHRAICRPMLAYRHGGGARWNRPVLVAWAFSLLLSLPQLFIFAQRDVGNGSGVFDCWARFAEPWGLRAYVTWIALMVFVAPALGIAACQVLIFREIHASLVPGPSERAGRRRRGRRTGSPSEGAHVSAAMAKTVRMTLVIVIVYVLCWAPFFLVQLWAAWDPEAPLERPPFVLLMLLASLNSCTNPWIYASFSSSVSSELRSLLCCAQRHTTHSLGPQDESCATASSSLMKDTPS

In the case of `CC(=O)OCCC1CCCN(C(=O)c2ccc(NC(=O)c3ccccc3Cl)nc2)c2ccc(Cl)cc21` (stereo not drawn) [Compound of Ex. 122, 7-chloro-5-(2-acetyloxyethyl)-1-[6-(2-chlorobenzoylamino)nicotinoyl]-2,3,4,5-tetrahydro-1H-benzazepine], the IC50 (usually the concentration that inhibits the measured activity by half) on Oxytocin receptor came to 640 nM; on V1 receptor, 15 nM; at V2 receptor, 3 nM.
For `Cc1ccccc1C(=O)Nc1ccc(C(=O)N2CCCC(CCO)c3cc(Cl)ccc32)cn1` (stereo not drawn) [Compound of Ex. 123], the IC50 on Oxytocin receptor worked out at 320 nM; at V1 receptor, 20 nM; on V2 receptor it was 3.2 nM.
For `O=C(Nc1ccc(C(=O)N2CCCC(CCN3CCCC3)c3cc(Cl)ccc32)cn1)c1ccccc1Cl` (stereo not drawn) [Compound of Ex. 126, 7-chloro-5-[2-(1-pyrrolidinyl)ethyl]-1-[6-(2-chlorobenzoylamino)nicotinoyl]-2,3,4,5-tetrahydro-1H-benzazepine], the IC50 at Oxytocin receptor turned out to be 1320 nM; at V1 receptor, 19 nM; on V2 receptor it was 5.3 nM.
Regarding `O=C(Nc1ccc(C(=O)N2CCCC(CCN3CCOCC3)c3cc(Cl)ccc32)cn1)c1ccccc1Cl` (stereo not drawn) [Compound of Ex. 127], the IC50 at Oxytocin receptor is 680 nM; at V1 receptor it was 29 nM; at V2 receptor, 5.9 nM.

(Values after patent US5498609A, “Benzoazepinyl compounds as oxytocin and vasopressin antagonists” (Otsuka Pharmaceutical Company, Limited, priority 1992, dated 1996).)
